Source: patent publication US4818754A, “Certain anti-inflammatory pyrazolo [4,3-b] pyridine 7-amines” (Beecham Group p.l.c. of Beecham House, priority 1986, dated 1989)

What was measured:
[1] = system: swelling induced by cantharidin; assay: Mouse cantharidin test (topical anti-inflammatory activity, mouse ear swelling); type: in vivo; details: 24 hours, CDl male mice, **p < 0.01, ***p < 0.001; for inhibition in vivo at 500 µg/ear: dose 500 μg/ear; for inhibition in vivo at 200 µg/ear: dose 200 μg/ear
Experimental: Compounds were tested for topical anti-inflammatory activity in a cantharidin mouse ear screen, modified from Swingle, Reiter and Schwartzmiller [Arch. int. Pharmacodyn. 254, 168-176, 1981].
25 μg cantharidin (in 10 μl tetrahydrofuran:methanol, 1:1 v/v) is applied to both ears of CDl male mice, 25 g bodyweight. 8 animals are used per experimental group. Compounds are included in the irritant solution applied to the left ear only. Negative control animals receive no treatment except 10 μl solvent on each ear. After 24 hours, the animals are killed and the ears are removed by cutting along the hairline and then weighed. The swelling induced by cantharidin is assessed as the increase in the weight of the right ears over that of the right ears of solvent-treated control animals, as a proportion of the weight of solvent-treated right ears. The swelling induced in the same animals in the presence of test compound is similarly the increase in the weight of the left ears over that of the left ears of the solvent-treated control animals, expressed as a proportion of the weight of solvent-treated left ears.
thus, % inhibition=([means wt.left experimental ears-mean wt.left 100-control ears]/[mean wt.left control ears])×100 ([mean wt.right experimental ears-mean wt.right control ears]/[mean wt.right control ears])
(§1) This method reduces the contribution of inter-animal variations in responsiveness to the inflammatory stimulus, and also compensates for any consistent bias in cutting off left and right ears. The significance of the inhibition is calculated using a paired `t` test of the two values of proportional weight increases.

[2] = system: swelling induced by oxazolone; assay: Mouse oxazolone test (topical anti-inflammatory activity in mice sensitised to oxazolone, ear swelling); type: in vivo; details: dose 200 μg/ear, 1 hour before challenge, 24 hours after, CDl male mice, *p < 0.1, **p < 0.01, ***p < 0.001
Experimental: Compounds were tested for topical anti-inflammatory activity in a model system using the mouse sensitised to oxazolone, by a method modified from that of Dietrich and Hess [Int. Arch. Allergy, 38, 246 (1970)].
Mice are sensitised with oxazolone (2 mg in 20 μl acetone) on a shaved area of the abdomen. CDl male mice of around 25 g bodyweight (8 animals per group) are used. 5 days later, the animals receive 10 μl tetrahydrofuran:methanol (1:1 v/v) on the right ear and the test compound in 10 μl of the same solvent on the left ear. 1 hour later, the animals are challenged with 100 μg oxazolone in 10 μl acetone on each ear. Negative control animals receive no treatment except 10 μl tetrahydrofuran:methanol at the initial time point. After 24 hours, the animals are killed and the ears are removed by cutting along the hairline and then weighed. The swelling induced by oxazolone is assessed as the increase in the weight of the right ears over that of the right ears of solvent-treated control animals, as a proportion of the weight of solvent-treated right ears. The swelling induced in the same animals in the presence of test compound is similarly the increase in the weight of the left ears over that of the left ears of the solvent-treated control animals, expressed as a proportion of the weight of solvent-treated left ears.
thus, % inhibition=([mean wt.left experimental ears-mean wt.left 100-control ears]/[mean wt.left control ears])×100 ([mean wt.right experimental ears-mean wt.right control ears]/[mean wt.right control ears])
as §1

SMILES | inhibition in vivo at 500 µg/ear [1] | % Inhibition [2] | inhibition in vivo at 200 µg/ear [1]
CCOC(=O)CCCNc1ccnc2cn[nH]c12 [Example 2, Ethyl 4-(7-(1H-Pyrazolo[4,3-b]pyridyl)amino)butanoate] | 94.6% | 48.6% | –
Cc1cc(NCCCN2CCCC2=O)c2[nH]ncc2n1 [Example 3, 5-Methyl-7-(3-(1-(2-oxopyrrolidinyl))propylamino)-1H-pyrazolo[4,3-b]pyridine] | – | 44.1% | 75.3%
CCCCC(=O)OCCCNc1cc(C)nc2cn[nH]c12 [Example 4, 7-[3-Pentanoyloxypropylamino]-5-methyl-1H-pyrazolo[4,3-b]pyridine] | – | – | 69.9%
Cc1cc(NCCN2CCOCC2)c2[nH]ncc2n1 [Example 5, 7-[2-(N-Morpholino)ethylamino]-5-methyl-1H-pyrazolo [4,3-b]pyridine dihydrate] | – | 61.6% | 97.6%
CC(=O)OCCCNc1cc(C)nc2cn[nH]c12 [Example 6, 7-[3-Acetoxypropylamino]-5-methyl-1H-pyrazolo[4,3-b]-pyridine] | – | 53% | 70%
Cc1cc(NCCOC(=O)c2ccccc2)c2[nH]ncc2n1 [Example 7, 7-[2-Benzoyloxyethylamino]-5-methyl-1H-pyrazolo[4,3-b]pyridine] | 99.6% | 30% | –
O=C(CCCNc1ccnc2cn[nH]c12)NCc1ccccc1 [Example 8, (7-(1H-Pyrazolo[4,3,-b]pyridyl)amino)butanoic acid benzylamide] | 95% | – | –
CCCCC(=O)OCCNc1cc(C)nc2cn[nH]c12 [Example 9, 7-(2-Pentanoyloxyethylamino)-5-methyl-1H-pyrazolo[4,3-b]pyridine] | – | – | 69%
CCC(=O)OCCNc1cc(C)nc2cn[nH]c12 [Example 10, 7-[2-Propionyloxyethylamino]-5-methyl-1H-pyrazolo[4,3-b]pyridine] | – | – | 55%
CC(C)CCOC(=O)CCCNc1ccnc2cn[nH]c12 [Example 12, Isoamyl (7-(1H-pyrazolo[4,3-b]pyridyl)amino)butanoate] | – | – | 78%
